Active and inactive are the calls of the source. The rule behind the calls is not given here.
Columns and labels:
[1] = biological target: T1, Protein cereblon/Bromodomain-containing protein 4 (Homo sapiens) (UniProt O60885+Q96SW2); experiment: Protac activity at CRBN/BRD4 in human MV4-11 cells assessed as induction of BRD4 protein degradation by measuring residual activity at 0.03 uM incubated for 3 hrs by Western blot analysis relative to control; format: cell-based
[2] = biological target: T1, Protein cereblon/Bromodomain-containing protein 4 (Homo sapiens); experiment: Protac activity at CRBN/BRD4 in human MM1.S cells assessed as induction of BRD4 protein degradation by measuring residual activity at 1000 nM measured after 6 hrs by Western blot analysis (reference value: 100%); format: cell-based
[3] = biological target: T1, Protein cereblon/Bromodomain-containing protein 4 (Homo sapiens); experiment: Protac activity at CRBN/BRD4 in human MM1.S cells assessed as induction of BRD4 protein degradation by measuring residual activity at 100 nM measured after 6 hrs by Western blot analysis (reference value: 100%); format: cell-based
MV4-11 = experiment: Antiproliferative activity against human […] cells assessed as inhibition of cell growth incubated for 72 hrs MTS assay; format: functional, cell-based; conditions: MV4-11, 72 h
[4] = biological target: T1, Protein cereblon/Bromodomain-containing protein 4 (Homo sapiens); experiment: Protac activity at CRBN/BRD4 in human MM1.S cells assessed as downregulation of MYC protein expression at […] incubated for 3 hrs by Western blot analysis; format: cell-based
[5] = biological target: T1, Protein cereblon/Bromodomain-containing protein 4 (Homo sapiens); experiment: Protac activity at CRBN/BRD4 in human MV4-11 cells assessed as induction of BRD4 protein degradation by measuring residual activity at 0.01 uM incubated for 3 hrs by Western blot analysis relative to control; format: cell-based
[6] = biological target: T1, Protein cereblon/Bromodomain-containing protein 4 (Homo sapiens); experiment: Protac activity at CRBN/BRD4 in human MM1.S cells assessed as induction of BRD4 protein degradation by measuring residual activity at 300 nM measured after 6 hrs by Western blot analysis (reference value: 100%); format: cell-based
[7] = biological target: T1, Protein cereblon/Bromodomain-containing protein 4 (Homo sapiens); experiment: Protac activity at CRBN/BRD4 in human MV4-11 cells assessed as induction of BRD4 protein degradation by measuring residual activity at 0.09 uM incubated for 3 hrs by Western blot analysis relative to control; format: cell-based
[8] = biological target: T1, Protein cereblon/Bromodomain-containing protein 4 (Homo sapiens); experiment: Protac activity at CRBN/BRD4 in human MV4-11 cells assessed as induction of BRD4 protein degradation by measuring residual activity at 30 nM measured after 6 hrs by Western blot analysis (reference value: 100%); format: cell-based
[9] = biological target: T1, Protein cereblon/Bromodomain-containing protein 4 (Homo sapiens); experiment: Protac activity at CRBN/BRD4 in human MV4-11 cells assessed as induction of BRD4 protein degradation by measuring residual activity at 100 nM measured after 6 hrs by Western blot analysis (reference value: 100%); format: cell-based
[10] = biological target: T1, Protein cereblon/Bromodomain-containing protein 4 (Homo sapiens); experiment: Protac activity at CRBN/BRD4 in human MV4-11 cells assessed as induction of BRD4 protein degradation by measuring residual activity at 10 nM measured after 6 hrs by Western blot analysis (reference value: 100%); format: cell-based
MM1.S = experiment: Antiproliferative activity against human MM1.S cells assessed as inhibition of cell growth incubated for 72 hrs MTS assay; format: functional, cell-based
[11] = biological target: T1, Protein cereblon/Bromodomain-containing protein 4 (Homo sapiens); experiment: Protac activity at CRBN/BRD4 in human MM1.S cells assessed as induction of BRD4 protein degradation by measuring residual activity at 0.1 uM incubated for 3 hrs by Western blot analysis relative to control; format: cell-based
[12] = biological target: T1, Protein cereblon/Bromodomain-containing protein 4 (Homo sapiens); experiment: Protac activity at CRBN/BRD4 in human MM1.S cells assessed as induction of BRD4 protein degradation by measuring residual activity at 0.3 uM incubated for 3 hrs by Western blot analysis relative to control; format: cell-based
[13] = biological target: T1, Protein cereblon/Bromodomain-containing protein 4 (Homo sapiens); experiment: Protac activity at CRBN/BRD4 in human MM1.S cells assessed as induction of BRD4 protein degradation by measuring residual activity at 0.03 uM incubated for 3 hrs by Western blot analysis relative to control; format: cell-based
[14] = biological target: T1, Protein cereblon/Bromodomain-containing protein 4 (Homo sapiens); experiment: Protac activity at CRBN/BRD4 in human MV4-11 cells assessed as induction of BRD4 protein degradation by measuring residual activity at 0.009 uM incubated for 3 hrs by Western blot analysis relative to control; format: cell-based
[15] = biological target: T1, Protein cereblon/Bromodomain-containing protein 4 (Homo sapiens); experiment: Protac activity at CRBN/BRD4 in human MV4-11 cells assessed as induction of BRD4 protein degradation by measuring residual activity at 0.027 uM incubated for 3 hrs by Western blot analysis relative to control; format: cell-based
[16] = biological target: T1, Protein cereblon/Bromodomain-containing protein 4 (Homo sapiens); experiment: Protac activity at CRBN/BRD4 in human MV4-11 cells assessed as induction of BRD4 protein degradation by measuring residual activity at 0.003 uM incubated for 3 hrs by Western blot analysis relative to control; format: cell-based
[17] = biological target: T1, Protein cereblon/Bromodomain-containing protein 4 (Homo sapiens); experiment: Protac activity at CRBN/BRD4 in human MV4-11 cells assessed as induction of BRD4 protein degradation by measuring residual activity at 0.045 uM incubated for 3 hrs by Western blot analysis relative to control; format: cell-based
[18] = biological target: T1, Protein cereblon/Bromodomain-containing protein 4 (Homo sapiens); experiment: Protac activity at CRBN/BRD4 in human MM1.S cells assessed as induction of BRD4 protein degradation by measuring residual activity at 0.06 uM incubated for 3 hrs by Western blot analysis relative to control; format: cell-based
[19] = biological target: T1, Protein cereblon/Bromodomain-containing protein 4 (Homo sapiens); experiment: Protac activity at CRBN/BRD4 in human MM1.S cells assessed as induction of BRD4 protein degradation by measuring residual activity at 0.18 uM incubated for 3 hrs by Western blot analysis relative to control; format: cell-based
[20] = biological target: T1, Protein cereblon/Bromodomain-containing protein 4 (Homo sapiens); experiment: Protac activity at CRBN/BRD4 in human MV4-11 cells assessed as induction of BRD4 protein degradation by measuring residual activity at 0.015 uM incubated for 3 hrs by Western blot analysis relative to control; format: cell-based
[21] = biological target: T1, Protein cereblon/Bromodomain-containing protein 4 (Homo sapiens); experiment: Protac activity at CRBN/BRD4 in human MV4-11 cells assessed as induction of BRD4 protein degradation by measuring residual activity at 0.005 uM incubated for 3 hrs by Western blot analysis relative to control; format: cell-based
[22] = biological target: T1, Protein cereblon/Bromodomain-containing protein 4 (Homo sapiens); experiment: Protac activity at CRBN/BRD4 in human MM1.S cells assessed as induction of BRD4 protein degradation by measuring residual activity at 0.02 uM incubated for 3 hrs by Western blot analysis relative to control; format: cell-based
[23] = biological target: T1, Protein cereblon/Bromodomain-containing protein 4 (Homo sapiens); experiment: Protac activity at CRBN/BRD4 in human MM1.S cells assessed as induction of BRD4 protein degradation by measuring residual activity at 0.04 uM incubated for 3 hrs by Western blot analysis relative to control; format: cell-based
[24] = biological target: T1, Protein cereblon/Bromodomain-containing protein 4 (Homo sapiens); experiment: Protac activity at CRBN/BRD4 in human MM1.S cells assessed as induction of BRD4 protein degradation by measuring residual activity at 0.12 uM incubated for 3 hrs by Western blot analysis relative to control; format: cell-based
[25] = biological target: T1, Protein cereblon/Bromodomain-containing protein 4 (Homo sapiens); experiment: Protac activity at CRBN/BRD4 in human MM1.S cells assessed as induction of BRD4 protein degradation by measuring residual activity at 0.36 uM incubated for 3 hrs by Western blot analysis relative to control; format: cell-based
[26] = biological target: T1, Protein cereblon/Bromodomain-containing protein 4 (Homo sapiens); experiment: Protac activity at CRBN/BRD4 in human MM1.S cells assessed as induction of BRD4 protein degradation by measuring residual activity at 0.07 uM incubated for 3 hrs by Western blot analysis relative to control; format: cell-based
[27] = biological target: T1, Protein cereblon/Bromodomain-containing protein 4 (Homo sapiens); experiment: Protac activity at CRBN/BRD4 in human MM1.S cells assessed as induction of BRD4 protein degradation by measuring residual activity at 0.6 uM incubated for 3 hrs by Western blot analysis relative to control; format: cell-based
[28] = biological target: T1, Protein cereblon/Bromodomain-containing protein 4 (Homo sapiens); experiment: Protac activity at CRBN/BRD4 in human MM1.S cells assessed as induction of BRD4 protein degradation by measuring residual activity at 0.2 uM incubated for 3 hrs by Western blot analysis relative to control; format: cell-based

T1 sequence (Q96SW2 whole entry, looked up, other chains not shown): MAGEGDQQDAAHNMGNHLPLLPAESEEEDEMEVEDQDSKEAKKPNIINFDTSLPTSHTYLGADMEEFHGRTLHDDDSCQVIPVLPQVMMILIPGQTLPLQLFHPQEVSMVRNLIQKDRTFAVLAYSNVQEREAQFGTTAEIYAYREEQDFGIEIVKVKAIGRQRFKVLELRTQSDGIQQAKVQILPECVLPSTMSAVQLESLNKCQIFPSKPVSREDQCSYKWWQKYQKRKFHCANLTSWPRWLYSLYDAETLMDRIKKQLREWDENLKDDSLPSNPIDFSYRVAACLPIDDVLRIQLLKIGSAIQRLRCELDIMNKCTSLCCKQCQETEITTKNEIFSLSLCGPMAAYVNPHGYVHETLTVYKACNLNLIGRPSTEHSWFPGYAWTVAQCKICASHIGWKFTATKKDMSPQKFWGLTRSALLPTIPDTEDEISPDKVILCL

Row | SMILES | Activity [1] | IC50 (MV4-11) | Activity [4] | Activity [5] | Activity [7] | IC50 (MM1.S) | Activity [11] | Activity [12] | Activity [13] | further results
1 | Cc1sc2c(c1C)C(c1ccc(Cl)cc1)=N[C@@H](CC(=O)NCCCCNC(=O)COc1cccc3c1C(=O)N(C1CCC(=O)NC1=O)C3=O)c1nnc(C)n1-2 (stereo partly specified) | 132% | 13 nM | Active | 137% | 48% | 141 nM | 87% | 54% | 109% | Activity [2]: 40%; Activity [3]: 26%; Activity [6]: 43%; Activity [8]: 14%; Activity [9]: 0%; Activity [10]: 21%
2 | Cc1sc2c(c1C)C(c1ccc(Cl)cc1)=N[C@@H](CC(=O)OC(C)(C)C)c1nnc(C)n1-2 | – | 42 nM | – | – | – | 62 nM | – | – | – | –
3 | Cc1sc2c(c1C)C(c1ccc(Cl)cc1)=N[C@@H](CC(=O)NCCCCCNC(=O)c1ccc(COc3cccc4c3C(=O)N(C3CCC(=O)NC3=O)C4=O)cc1)c1nnc(C)n1-2 (stereo partly specified) | – | 8 nM | inactive | – | – | 110 nM | 86% | 75% | 87% | Activity [14]: 96%; Activity [15]: 56%; Activity [16]: 95%
4 | Cc1sc2c(c1C)C(c1ccc(Cl)cc1)=N[C@@H](CC(=O)NCCCCNC(=O)c1ccc(COc3cccc4c3CN(C3CCC(=O)NC3=O)C4=O)cc1)c1nnc(C)n1-2 (stereo partly specified) | – | 10 nM | – | – | – | 139 nM | – | – | – | Activity [17]: 95%; Activity [18]: 98%; Activity [19]: 59%; Activity [20]: 102%; Activity [21]: 126%; Activity [22]: 93%
5 | Cc1sc2c(c1C)C(c1ccc(Cl)cc1)=N[C@@H](CC(=O)NCCCCC(=O)NCc1ccc(CNc3cccc4c3C(=O)N(C3CCC(=O)NC3=O)C4=O)cc1)c1nnc(C)n1-2 (stereo partly specified) | 104% | 26 nM | – | 103% | 112% | 131 nM | – | – | – | Activity [23]: 121%; Activity [24]: 125%; Activity [25]: 116%
6 | Cc1sc2c(c1C)C(c1ccc(Cl)cc1)=N[C@@H](CC(=O)NCCCNC(=O)c1ccc(COc3cccc4c3C(=O)N(C3CCC(=O)NC3=O)C4=O)cc1)c1nnc(C)n1-2 (stereo partly specified) | 66% | 28 nM | inactive | 89% | 78% | 302 nM | – | – | – | Activity [26]: 126%; Activity [27]: 84%; Activity [28]: 108%

Source: ChEMBL document CHEMBL5236646, “Design, synthesis, and biological evaluation of BRD4 degraders” (Bioorg Med Chem, 2023)
